In patent US8846308B2, “Method for identifying immune response modulators” (The Trustees of the University of Pennsylvania, priority 2007, dated 2014):

Tested on: FOXP3
Test: Acetylation of chromatin-bound FOXP3 in HA-FOXP3a/3b transfected Jurkat T cells (immunoblot)
Assay type: cell-based, human
Details: 1 ng TGF-β per million cells; serum-starved Jurkat T cells; between 2 and 4 hours after exposure; anti-acetyl lys immunoblot; FIG. 10B
Method: FIG. 10B is an image of an immunoblot of untreated and TGF-β treated, human HA-FOXP3a/3b transfected Jurkat T cells. The transfected cells were stimulated with or without 1 ng TGF-β per million cells for indicated time periods. Equal amounts of proteins from chromatin rich fractions were separated by SDS-PAGE, transferred to nitrocellulose, and immunoblotted with anti-acetyl lys specific antibody (Ac-K-103, Santa Cruz) followed by reprobing with anti-HA-HRP conjugated antibody. Acetylated FOXP3a and FOXP3b proteins are marked.
The effect of TGF-β on the acetylation of FOXP3 was examined. Serum-starved human HA-FOXP3a/3b transfected Jurkat T cells were stimulated with or without 1 ng TGF-β per million cells for indicated time periods. Equal amounts of proteins from chromatin rich fractions were separated by SDS-PAGE, transferred to nitrocellulose, and immunoblotted with anti-acetyl lys specific antibody (Ac-K-103, Santa Cruz) followed by reprobing with anti-HA-HRP conjugated antibody (FIG. 9B).

Transforming Growth Factor-β [TGF-β]
chromatin-bound acetylated FOXP3: High levels of chromatin-bound acetylated FOXP3
